Results reported in patent US11622975B2, “Compositions and methods for improved honey bee health” (priority 2019, dated 2023).

What was measured:
[1] = system: honey bee colonies; assay: Overwintering field trial of honey bee colonies treated with HPBCD and acaricide; assay type: in vivo; settings: for colony (hive) loss: fed October to December, surviving hives counted in March, 10 colonies per treatment, no treatment about 50%; for total frames containing bees: measured in March after overwintering, no treatment 50 frames
Method: This example illustrates the use of HPBCD in a field setting. Four treatments with 10 colonies per treatment were performed as follows: (i) No HPBCD and no acaricide (No Treatment control), (ii) acaricide alone (Amitraz), (iii) HPBCD, and (iv) a combination of Amitraz and HPBCD. Colonies were fed treatments using a top box feeder in a “Langstroth Hive” from October to December, then surviving hives were counted in March of the following year and numbers of Langstroth frames containing bees were measured. About 50% of the colonies that received no treatment were lost; while it is a high level of loss it was within the expected range for hives that received no extra management besides sugar syrup supplementation (which agrees with the national average for untreated colonies). The group receiving only Amitraz, the current industry standard for mite control, lost about 20% of the colonies. HPBCD on its own was able to reduce hive loss to about 30%. […] Not intending to be bound by theory, one possible explanation for this profound effect is that Amitraz was lethal to mites based on contact (LC50), while the possible sub lethal and chronic affects for the honey bee were dosage based (LD50) as evidenced by slower behavioral response time (see e.g., De Mattos, 2017). It is likely the bees ingest the HPBCD and the Amitraz was sequestered rendering its effects on the bee diminished, while the groups that received no HPBCD were still susceptible to the effects of the acaricide.

[2] = system: honey bees; assay: Cage survival study of bees fed sublethal doses of pesticides with or without MBCD; assay type: in vivo, Apis mellifera
Method: (§1) This example illustrates the baseline effects of the inventive composition in the absence of an exogenous stressor. Samples of European honey bees, Apis mellifera, were collected from colonies maintained in the apiaries of the USDA-ARS Bee Research Laboratory in Beltsville, Md. Frames with emerging brood were removed from colonies and individually placed in a mesh-walled cage. The cages were transferred to an insect growth chamber at 34° C. and 70% humidity. After 24 hrs incubation, newly emerged honey bees were transferred to a honey bee rearing cup, with a top-feeder design, allowing for easy sampling of honey bees (see e.g., Evans et al., 2009). A 3 mL syringe filled with 50% sugar syrup mixture was inverted over the top of the rearing cup to provision the caged honey bees. The honey bees were also provisioned with 1.5 grams of honey bee pollen supplement in patty form (e.g., Bee-Pro®, available from Mann Lake Ltd, Hackensack, Minn.), supplemented 10% (w/w) with ground fresh pollen, and placed on cotton paper on the cup cage bottoms. Syringes and sucrose solution were changed every 3 days and cotton paper was changed once per week.
In this example, whether MBCD mitigates the toxicity of certain pesticides associated with honey bee death was investigated. Not intending to be theory-bound, it was hypothesized that the binding of hydrophobic pesticide molecules to CDs would translate into health benefits to honey bees that were exposed to such pesticides. Samples of honey bees were collected as in example 1. A cage study (n=30 bees per cage & 2 replicate cages per treatment) was performed using 50% sucrose solution that had been spiked with sublethal doses of common pesticides that are known to be toxic to honey bees to measure the ability of treatment MBCD compositions to confer protection to the honey bees. Analytical grade standards of clothianidin, imidacloprid, and chlorpyrifos (available from MilliporeSigma, St. Louis, Mo.) were first dissolved in acetone, then diluted to their final concentrations (Table 2) in 50% sugar syrup. The listed sublethal doses were derived from taking half of the previously published honey bee LD50s (referred to a “LD25” in Table 2). The solutions were administered via 3 mL syringes in rearing cups as previously stated. Fresh pesticide solutions were mixed every 3 days to coincide with syringe replacement (see e.g., Williamson et al., 2013; Li et al, 2017).
Median survival is represented for each treatment by (# days). Curves were compared using Log-Rank Mantel-Cox (p<0.0001 for clothianidin versus control, 1, or 10 μg MBCD; p<0.001 for chlorpyrifos versus control or 1 μg MBCD) and Gehan-Breslow-Wilcoxon (p<0.0001 for clothianidin versus control, 1, or 10 μg MBCD; p<0.05 for chlorpyrifos versus control or 1 μg MBCD). […] The chlorpyrifos treatment was able to reduce median lifespan on its own to 26 days compared to the 36 days of the control (FIG. 2C). While a dosage of 10 μg/bee MBCD did increase median lifespan to 30 days, there was not a significant change in median lifespan.

[3] = system: honey bee; settings: half of previously published honey bee LD50; used as dose in the cage study; cited from earlier work
[4] = system: honey bees; assay: MBCD and HPBCD alpha-tocopherol inclusion complex treatment of clothianidin-exposed bees, survival; assay type: in vivo, Apis mellifera; settings: clothianidin treatment alone, n=280 bees/treatment
Method: MBCD & HPBCD alpha-tocopherol inclusion complexes were formulated using 2.33 μL of +-(α)-tocopherol (1,000 I.U., available from MilliporeSigma, St. Louis, Mo.) added to 1 g of MBCD or HPBCD to arrive at a concentration of approximately 20 I.U. of tocopherol/bee/day and 10 μg (or other indicted dosage) of BCD/bee/day. The resulting powder can be stored at −20° C. or immediately dissolved into 4.166 L of water containing 50% sucrose. The resulting solution is stable and stored at 4° C. until further use. The comparative effects of MBCD versus HPBCD treated bees are shown for lab-controlled environment (n=280 bees/treatment).

[5] = system: Deformed wing virus (DWV); assay: Viral load (RT-qPCR) in virus-infected honey bees after MBCD treatment; assay type: in vivo, Apis mellifera; settings: for decrease in DWV (+) sense viral genome / decrease in DWV (−) sense replicative strand: 10 μg/bee MBCD; for decrease in DWV (+) sense viral genome: versus untreated infected bees
Method: The presence of DWV and Varroa destructor was determined as follows. Total RNA was extracted from whole body 12 individual honey bees using the TRIzol Reagent® (available from Thermo Fisher Scientific, Waltham, Mass.) by manufacturers specifications, and stored at −80° C. First-strand cDNA was synthesized using the Superscript III Reverse Transcriptase (available in a kit from Thermo Fisher Scientific). Briefly, each reaction contained: 3 μl total bee RNA (˜1 μg/μl), 1 μl of 10 mM dNTPs, 1 μl random primers (0.15 μg/μl), 1 μL of Oligo(dT), 1 μl of 0.1 M DTT (0.1 M), 4 μl 5×First-Strand Buffer, 1 uL of 200 U/μL RnaseOUT, 1 μl of 200 U/μl SuperScript III Reverse Transcriptase, and 7 μl Nuclease-free water. The reaction mixture was incubated at 25° C. for 5 min, 55° C. for 2 hrs, and 70° C. for 15 min, then stored at −20° C. until use. Transcript levels (RT-qPCR analysis) were quantified using the Brilliant III Ultra-Fast SYBR Green® QPCR Master Mix (Agilent Technologies, Inc., Santa Clara, Calif.) on a CFX384 Touch Real Time PCR Detection System (Bio-Rad Laboratories, Inc., Hercules, Calif.). Samples were incubated at 95° C. for 5 min, followed by 40 cycles of 95° C. for 20 s, 59° C. for 20 s, and 72° C. for 20 s. Thereafter, a melt curve analysis from 65° C. to 95° C. was performed to confirm product specificity. For the detection and quantification of negative stranded bee viruses, replication intermediates, TAG-DWV primers were substituted for random primers or oligos (see e.g., Boncristiani et al., 2009). The fold difference in viral concentration among different treatment groups was determined using the comparative Ct method (2^−ΔΔCT method) (see e.g., Livak & Schmittgen, 2001). Calibrators were chosen as the highest average treatment ΔCt value for each experiment.
Emerging bees that had non-deformed wings (i.e., asymptomatic) were selected for a cage study (n=30 bees per cage & 6 replicate cages per treatment). […] Virally infected untreated bees were compared to bees fed 10 μg/bee MBCD in 50% sucrose solution. In FIG. 6A, DWV (+) sense viral genome titers were compared 3 and 6 days after treatment. An unpaired, 2-tailed Student's T-Test was performed to determine statistical significance (p<0.05 at 3 days feeding; N.S.=Non-significant 6 days after treatment). In FIG. 6B, DWV (−) sense replicative strand titers were compared 3 and 6 days after treatment. An unpaired, 2-tailed Student's T-Test was performed to determine statistical significance (p<0.0001 for 3 days post treatments; p=0.049 for 6 days post treatment). The “★” denotes the sample chosen as the 2^−ΔΔCT calibrator and bars denote standard error.

[6] = system: European honey bees, Apis mellifera; assay: Longevity of healthy adult worker bees in cage study after MBCD treatment; assay type: in vivo; settings: healthy newly emerged bees, versus control
Method: as §1
Newly emerged honey bees were placed in individual cages (n=30 bees per cage & 2 replicate cages per treatment) and fed using a syringe filled with 50% sucrose alone or supplemented with either 1, 10, or 100 μg MBCD per bee/per week. […]

[7] = system: glutathione-S-transferase S1 (GSTS1); assay: Transcript levels of honey bee detoxification gene (RT-qPCR); assay type: in vivo, Apis mellifera; settings: clothianidin plus 10 μg/bee MBCD versus pesticide only, after 3 days of feeding
Method: Bees receiving clothianidin were compared to bees receiving the pesticide with the addition of 1 μg or 10 μg/bee MBCD after 3 days of feeding. One-way ANOVA with Tukey multiple comparisons was performed to determine any statistical significance (p<0.05 for Clothianidin versus Clothianidin+10 μg/bee MBCD). The “*” denotes the sample chosen as the 2^−ΔΔCT calibrator. […] Pesticides removed from the immediate environment results in less energy dedicated to detoxification and excretion.
(§2) The presence of DWV and Varroa destructor was determined as follows. Total RNA was extracted from whole body 12 individual honey bees using the TRIzol Reagent® (available from Thermo Fisher Scientific, Waltham, Mass.) by manufacturers specifications, and stored at −80° C. […] Transcript levels (RT-qPCR analysis) were quantified using the Brilliant III Ultra-Fast SYBR Green® QPCR Master Mix (Agilent Technologies, Inc., Santa Clara, Calif.) on a CFX384 Touch Real Time PCR Detection System (Bio-Rad Laboratories, Inc., Hercules, Calif.). […] For the detection and quantification of negative stranded bee viruses, replication intermediates, TAG-DWV primers were substituted for random primers or oligos (see e.g., Boncristiani et al., 2009). The fold difference in viral concentration among different treatment groups was determined using the comparative Ct method (2^−ΔΔCT method) (see e.g., Livak & Schmittgen, 2001). […]

[8] = system: honey bees infected with Deformed wing virus; assay: Survival of virus-infected honey bees after MBCD treatment; assay type: in vivo, Apis mellifera; settings: 10 μg/bee MBCD in 50% sucrose, untreated 6 days
Method: as §2, with “C. First-strand cDNA was synthesized using the Superscript III Reverse Transcriptase (available in a kit from Thermo Fisher Scientific).” for “C.”
Untreated bees fed only 50% sucrose were compared to bees receiving 10 μg/bee MBCD in 50% sucrose (FIG. 7). […] Bees were measured 3 (FIG. 8A) and 6 (FIG. 8B) days post feeding. […]

[9] = system: honey bees infected with Deformed wing virus; assay: Weight of virus-infected honey bees after MBCD treatment; assay type: in vivo, Apis mellifera; settings: 10 μg/bee MBCD
Method: Untreated bees fed only 50% sucrose were compared to bees receiving 10 μg/bee MBCD in 50% sucrose (FIG. 7). Median survival was represented for each treatment by (# days). Curves were compared using Log-Rank Mantel-Cox (p<0.001) and Gehan-Breslow-Wilcoxon (p<0.01). […] The mass ([…]) of control bees was compared to bees fed 10 μg/bee MBCD. Bees were measured 3 (FIG. 8A) and 6 (FIG. 8B) days post feeding. With average bee weight higher along with more bees present, the amount of work accomplished in the hive as a whole would be expected to increase. An unpaired, 2-tailed Student's T-Test was performed to determine statistical significance (p<0.05 at 3 days) and bars denote standard error.

[10] = bees fed pesticide alone at sublethal dose in 50% sucrose, control 36 days

For `Cc1ccc(/N=C/N(C)/C=N/c2ccc(C)cc2C)c(C)c1` [Amitraz, amitraz, reference compound], the “colony (hive) loss” value [1] was “about 20%” and the “total frames containing bees” value [1] was 48.5 frames.
For `CCOP(=S)(OCC)Oc1nc(Cl)c(Cl)cc1Cl` [Chlorpyrifos, chlorpyrifos, reference compound], the median lifespan [2, 10] is given as 26 days and the “Sublethal LD25” value [3] is given as 0.43 ng/bee.
In the case of `CN/C(=N\[N+](=O)[O-])NCc1cnc(Cl)s1` [Clothianidin, clothianidin, reference compound], the median lifespan [2, 10] is reported as 13.5 days, the median lifespan [4] is reported as 22 days and the DWV levels ([5]; clothianidin treated bees compared to bees supplemented with 20 ppm MBCD) is reported as “higher levels of DWV”. The “Sublethal LD25” value [3] was 1.0 ng/bee.
In the case of `CC(O)COC[C@H]1O[C@@H]2O[C@H]3[C@H](O)[C@@H](O)[C@@H](O[C@H]4[C@H](O)[C@@H](O)[C@@H](O[C@H]5[C@H](O)[C@@H](O)[C@@H](O[C@H]6[C@H](O)[C@@H](O)[C@@H](O[C@H]7[C@H](O)[C@@H](O)[C@@H](O[C@H]8[C@H](O)[C@@H](O)[C@@H](O[C@H]1[C@H](O)[C@H]2O)O[C@@H]8COCC(C)O)O[C@@H]7COCC(C)O)O[C@@H]6COCC(C)O)O[C@@H]5COCC(C)O)O[C@@H]4COCC(C)O)O[C@@H]3COCC(C)O` (stereo partly drawn) [HPBCD, hydroxypropyl-β-cyclodextrin], the “colony (hive) loss” value [1] is reported as “about 30%” and the “total frames containing bees” value [1] is reported as 53.5 frames.
In the case of `O=[N+]([O-])NC1=NCCN1Cc1ccc(Cl)nc1` [Imidacloprid, imidacloprid, reference compound], the median lifespan [2, 10] is given as 32 days and the “Sublethal LD25” value [3] is given as 4.3 ng/bee.
With methyl-β-cyclodextrin [MBCD] the “increase in median lifespan” value ([6]; 1 μg MBCD per bee/per week in 50% sucrose) was 9 days, the “increase in median lifespan” value ([6]; 10 μg MBCD per bee/per week in 50% sucrose) was 6.5 days and the median lifespan ([2]; chlorpyrifos plus 1 μg/bee MBCD, chlorpyrifos alone 26 days) was 36.5 days. It also gave a median lifespan ([2]; chlorpyrifos plus 10 μg/bee MBCD, chlorpyrifos alone 26 days) of 30 days, a median lifespan ([2]; clothianidin plus 1 μg/bee MBCD, clothianidin alone 13.5 days) of 31 days and a median lifespan ([2]; clothianidin plus 10 μg/bee MBCD, clothianidin alone 13.5 days) of 40 days. The median lifespan ([2]; imidacloprid plus 1 μg/bee MBCD, imidacloprid alone 32 days) was 31 days, the median lifespan ([2]; imidacloprid plus 10 μg/bee MBCD, imidacloprid alone 32 days) was 36 days and the “decrease in GSTS1 transcript level” value [7] was 1.5 fold. For the same compound, the “decrease in DWV (+) sense viral genome” value ([5]; 3 days after treatment) was roughly 2 fold, the “decrease in DWV (−) sense replicative strand” value ([5]; 3 days post treatment) was “approximately 3 fold” and the “decrease in DWV (−) sense replicative strand” value ([5]; 6 days post treatment) was roughly 2 fold. For the same compound, the “decrease in DWV (+) sense viral genome” value ([5]; 6 days post treatment) was “non-significant decrease”, the median lifespan [8] was 9 days and the “bee weight versus control” value ([9]; 3 days after feeding) was “significantly higher weight”. The “bee weight versus control” value ([9]; 6 days after feeding) was “statistically comparable”.
